# Assay results taken from US11186575B2, “Treatment of helicobacter pylori infections” (Albert Einstein College of Medicine, Inc., priority 2012, dated 2021).
# Like-named read-outs stand apart in the source and are kept apart here.
# B1: HpMTAN (Helicobacter pylori J99) (protein)
# chain: MQKIGILGAMREEITPILELFGVDFEEIPLGGNVFHKGVYHNKEIIVAYSKIGKVHSTLTTTSMILAFGVQKVLFSGVAGSLVKDLKINDLLVATQLVQHDVDLSAFDHPLGFIPESAIFIETSGSLNALAKKIANEQHIALKEGVIASGDQFVHSKERKEFLVSEFKASAVEMEGASVAFVCQKFGVPCCVLRSISDNADEKAGMSFDEFLEKSAHTSAKFLKSMVDEL
# notes: His6 (N); made in house; host or cells: E. coli BL21 (DE3)
# What was measured:
# [1] = tested on: H. pylori; assay: Zone of inhibition (disc) on H. pylori; type: cell-based, Helicobacter pylori; conditions: equivalent amounts (10 ng or 20 ng per disc)
# Method: FIG. 3A-3B: The effects of BuT-DADMe-ImmA (30) on H. pylori growth. A. The effects of increasing the concentration of BuT-DADMe-ImmA (ng/ml) on growth on blood agar. B. The inhibitory effects of BuT-DADMe-ImmA are compared with amoxicillin, metronidazole and tetracyclin in zone of inhibition studies. Drug concentrations were: 0 (top disc), 10 ng (middle disc) or 20 ng (bottom disc). Each specified antibiotic was applied to the disc in the same manner.
# (§1) H. pylori were grown for 72 hours under microaerophilic condition (5% O2, 10% CO2 and 85% N2) at 37° C. on tryptic soy agar with 5% horse blood. To determine the MIC values, the test substance was added to the gel solution right before pouring. To compare the zones of inhibition, specific antibiotics were added to the center of disc after spreading H. pylori, and then H. pylori was allowed to grow for 72 hours under microaerophilic condition at 37° C.
# Commonly used antibiotics in H. pylori infections include amoxicillin, metronidazole and tetracycline. The anti-H. pylori effects of BuT-DADMe-ImmA (30) were compared to those antibiotics in common use. […] Thus, BuT-DADMe-ImmA is more efficient at inhibition of H. pylori growth than commonly used antibiotics.
# [2] = molecular target: T1, HpMTAN (Helicobacter pylori, UniProt Q9ZMY2); assay: Kinetics of HpMTAN with substrates, direct assay (absorbance at 274 nm); type: biochemical; conditions: substrate of purified HpMTAN
# T1 construct: His6 (N); made in house; host or cells: E. coli BL21 (DE3)
# T1 sequence (Q9ZMY2 1-230): B1 chain
# Method: (§2) Kinetics of HpMTAN were determined using a direct assay involving absorbance decrease at 274 nm continuously as a consequence of formation of free adenine from 5′-methylthioadenosine. The Ki and Ki* values of BuT-DADMe-ImmA (30) were determined using coupled assays, in which xanthine oxidase was used as the coupling enzyme and absorbance increase was followed at 292 nm as the product adenine is converted to 2,8-dihydroxyadenine. Both assays have been previously described
# BuT-DADMe-ImmA (30) was previously characterized as a transition state analogue inhibitor of EcMTAN (FIG. 1C)^8. Here, inhibition assays were performed using BuT-DADMe-ImmA against recombinant HpMTAN with 5′-methylthioadenosine as substrate. Purified HpMTAN uses both 5′-methylthioadenosine and 6-amino-6-deoxyfutalosine as facile substrates. […] The low Kd value supports the proposal that BuT-DADMe-ImmA is a transition state analogue inhibitor for HpMTAN. […] The nitrogen of the hydroxypyrrolidine moiety has a pKa value of 9, and thus mimics the positive charge of a ribocation at the transition state. The methylene bridge extends the distance between the sugar and the purine base leaving group, as this distance is near 3 Å at the transition state. […]
# [3] = tested on: H. pylori; assay: H. pylori growth on tryptic soy agar with 5% horse blood (MIC); type: cell-based, Helicobacter pylori; conditions: Helicobacter pylori, read-out: Inhibition of H. pylori growth MIC90
# Method: as §1
# The effects of BuT-DADMe-ImmA (30) were tested on H. pylori growing on 5% horse blood agar. At 6 ng/ml, slight growth was detected and at 8 ng/ml, no growth was detected, therefore the MIC90 value for inhibition of H. pylori growth is <8 ng/ml (FIG. 3A).
# [4] = molecular target: T2, H. pylori MTAN (Helicobacter pylori, UniProt Q9ZMY2); conditions: Table 3, cited from earlier work
# T2 construct: His6 (N); made in house; host or cells: E. coli BL21 (DE3)
# T2 sequence (Q9ZMY2 1-230): B1 chain
# [5] = molecular target: T2, H. pylori MTAN; assay: Ki determination: inhibition of recombinant HpMTAN, xanthine oxidase coupled assay, 5′-methylthioadenosine as substrate; type: biochemical
# Method: The purification procedure of HpMTAN was described previously^10. Briefly, BL21 (DE3) cells harboring a plasmid encoding HpMTAN with an N-terminal His6-tag were grown to an optical density of 0.7 measured at 595 nm and IPTG was introduced to a final concentration of 0.5 mM. After another 15 h at 22° C., cells were collected by centrifugation. The pellet was suspended and later disrupted by pressure cell and sonication. The soluble portion was applied to a Ni-NTA column and HpMTAN was eluted with an imidazole concentration gradient of 200 to 500 mM. The protein was desalted using a Superdex G15 gel-filtration column then equilibrated and concentrated in 10 mM Hepes, 30 mM KCl, pH 7.6. The purity was confirmed by SDS-PAGE.
# as §2
# (§3) BuT-DADMe-ImmA (30) was previously characterized as a transition state analogue inhibitor of EcMTAN (FIG. 1C)^8. Here, inhibition assays were performed using BuT-DADMe-ImmA against recombinant HpMTAN with 5′-methylthioadenosine as substrate. Purified HpMTAN uses both 5′-methylthioadenosine and 6-amino-6-deoxyfutalosine as facile substrates. […] The low Kd value supports the proposal that BuT-DADMe-ImmA is a transition state analogue inhibitor for HpMTAN. […] The nitrogen of the hydroxypyrrolidine moiety has a pKa value of 9, and thus mimics the positive charge of a ribocation at the transition state. The methylene bridge extends the distance between the sugar and the purine base leaving group, as this distance is near 3 Å at the transition state. The 9-deazaadenine alters conjugation in the purine ring, causing an elevated pKa and protonation of N7, resembling the N7-protonated adenine leaving group at the transition state.
# [6] = substrate: CC(O)[C@H]1O[C@@H](n2cnc3c(N)ncnc32)[C@H](S)[C@@H]1O; assay: Kinetics of HpMTAN with substrates, direct assay (absorbance at 274 nm); type: biochemical, Helicobacter pylori; conditions: other: substrate of purified HpMTAN
# Method: as §2, §3
# [7] = Table 3, agar plate, 72 hours, microaerophilic
# [8] = Table 3, DADMe-Immucillin-A series, initial inhibition constant, read-out: Inhibition of H. pylori MTAN Ki
# [9] = Table 3, equilibrium dissociation constant after slow onset, read-out: Inhibition of H. pylori MTAN Ki*
Molecule,"MIC90 [3, 7]","Ki [5, 8]","Ki [5, 9]",also measured
"CC1(C)S[C@@H]2[C@H](NC(=O)[C@H](N)c3ccc(O)cc3)C(=O)N2[C@H]1C(=O)O [amoxicillin, reference compound]",,,,"zones of inhibition, comparison of antibiotics [1]: smaller zone of growth inhibition than BuT-DADMe-ImmA"
Nc1ncnc2c1ncn2[C@@H]1O[C@H](CCC(=O)c2cccc(C(=O)O)c2)[C@@H](O)[C@H]1O [6-amino-6-deoxyfutalosine],,,,Km [2]: 0.8 ± 0.3 µM; kcat ([2]; in 1/s): 4.3±0.9
CSCC1CN(Cc2c[nH]c3c(N)ncnc23)CC1O (centres unmarked) [Compound 31],0.006 to 0.012 µg/mL,,,"Ki ([4]; read-out: Inhibition of H. pylori MTAN Ki*, value from Reference 10): 0.57 nM; Ki ([4]; read-out: Inhibition of H. pylori MTAN Ki, value marked (Reference 10)): 1.2 nM"
Nc1ncnc2c(CN3CC(O)C(CSc4ccc(Cl)cc4)C3)c[nH]c12 (centres unmarked) [Compound 41],,,,"Ki ([4]; value from Reference 10, read-out: Inhibition of H. pylori MTAN Ki*): 0.57 nM; Ki ([4]; value marked (Reference 10), read-out: Inhibition of H. pylori MTAN Ki): 40 nM"
"Cc1ncc([N+](=O)[O-])n1CCO [metronidazole, reference compound]",,,,"zones of inhibition, comparison of antibiotics [1]: no growth inhibition"
"Nc1ncnc2c(CN3C[C@H](CSc4ccccn4)[C@@H](O)C3)c[nH]c12 [Compound 24, (3R,4S)-1-({4-Amino-5H-pyrrolo[3,2-d]pyrimidin-7-yl}methyl)-4-[(pyridin-2-ylthio)methyl]pyrrolidin-3-ol]",0.04 µg/mL,0.32 ± 0.7 nM,0.041 ± 0.002 nM,
Nc1ncnc2c(CN3C[C@H](CSCc4ccccc4)[C@@H](O)C3)c[nH]c12 [Compound 38],0.04 µg/mL,203 ± 28 nM,0.31 ± 0.08 nM,
"Nc1ncnc2c(CN3C[C@H](CCSCCOCCO)[C@@H](O)C3)c[nH]c12 [Compound 17, (3R,4S)-1-({4-Amino-5H-pyrrolo[3,2-d]pyrimidin-7-yl}methyl)-4-(2-{[2-(2-hydroxyethoxy)ethyl]thio}ethyl)pyrrolidin-3-ol]",0.08 µg/mL,0.28 ± 0.03 nM,0.05 ± 0.01 nM,
Nc1ncnc2c(CN3C[C@H](CSC4CCCCCC4)[C@@H](O)C3)c[nH]c12 [Compound 37],0.035 to 0.07 µg/mL,0.4 ± 0.05 nM,0.027 ± 0.002 nM,
"Nc1ncnc2c(CN3C[C@H](CSc4n[nH]c(-c5ccncc5)n4)[C@@H](O)C3)c[nH]c12 [Compound 56, (3R,4S)-1-({4-Amino-5H-pyrrolo[3,2-d]pyrimidin-7-yl}methyl)-4-({[5-(pyridin-4-yl)-1H-1,2,4-triazol-3-yl]thio}methyl)pyrrolidin-3-ol]",> 0.1 µg/mL,0.28 ± 0.02 nM,,
Nc1ncnc2c(CN3C[C@H](CSC4CCCC4)[C@@H](O)C3)c[nH]c12 [Compound 32],0.007 to 0.014 µg/mL,0.78 ± 0.15 nM,0.17 ± 0.01 nM,
Nc1ncnc2c(CN3C[C@H](CSCC4CCCCC4)[C@@H](O)C3)c[nH]c12 [Compound 36],0.018 to 0.035 µg/mL,0.56 ± 0.27 nM,0.045 ± 0.004 nM,
CSC[C@H]1NC(c2c[nH]c3c(N)ncnc23)[C@H](O)[C@@H]1O (some centres unmarked) [Compound 44],,,,"MIC90 ([3]; 72 h, Table 4, Immucillin-A series): 0.08 µg/mL; Ki ([5]; Table 4, Immucillin-A series, read-out: Inhibition of H. pylori MTAN Ki): 0.98 ± 0.06 nM; Ki ([5]; Table 4, Immucillin-A series, read-out: Inhibition of H. pylori MTAN Ki*): 0.24 ± 0.03 nM"
B1,,,,Km [6]: 0.6 ± 0.3 µM; kcat [6]: 12.1 s⁻¹; kcat/Km [6]: 2e+07 M⁻¹ s⁻¹
